# Experiment: recombinant UMI read abundance after kanamycin selection (control-corrected) (log10(CPM+1)); higher = more efficient recombination; extreme values may be limits of the assay; sequences stand for … in AGTGCAGAGAAAATCGGCCAGTTTTCTCTGCCTGCAGTCCGCATGCCGTGGGACCCCTTGGGTTCTAACCTGTTGCCTAGATTTATGCAGCGGACTGCCTTTCTCCCAAAGTGATAAACCGG…AGGTTGGTTTCACT; site = the 11-nt donor
# How it was run: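 Counts of recombinant UMIs were reported as log10(CPM+1). Before that, they were converted to CPM, averaged over replicates and scaled using control-derived factors. They came from PCR across the donor–target junction after Escherichia coli carrying the pair library and target plasmid was plated on IPTG (0.07 mM) plus kanamycin, or unselected, in two replicates each.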
# 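Wherever recombinant UMI read abundance after kanamycin selection (control-corrected) is given: IS621 bridge recombinase in Escherichia coli cells against a fixed T5 target plasmid.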
# 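Wherever recombinant barcode read abundance after kanamycin selection (control-corrected) is given: IS621 recombinase and bridge RNA in Escherichia coli cells.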
row,Sequence,recombinant UMI read abundance (log10)
1,TTGCTTACATGGACCGGTTTTCCCGGTAATCCGTATTTGAC (site TTGCTTACTGT),0
2,TTGGAATCATGGACCGGTTTTCCCGGTAATCCGTATTTGCG (site TAGGAATCTCG),1.81
3,TTGGAATCATGGACCGGTTTTCCCGGTAATCCGTATTTGCG (site TCGGAATCTCG),0.968
4,TTGGAATCATGGACCGGTTTTCCCGGTAATCCGTATTTGCG (site TGGGAATCTCG),0.00536
5,TTGGAATCATGGACCGGTTTTCCCGGTAATCCGTATTTGCG (site TTGGAATCTCG),2.27
6,TTGGCAACATGGACCGGTTTTCCCGGTAATCCGTATTTGCT (site TTGGCAACTAG),0.0704
7,TTGGCTGCATGGACCGGTTTTCCCGGTAATCCGTATTTGTG (site TTAGCTGCTCA),0.0254
8,TTGGCTGCATGGACCGGTTTTCCCGGTAATCCGTATTTGTG (site TTCGCTGCTCA),0.0142
9,TTGGCTGCATGGACCGGTTTTCCCGGTAATCCGTATTTGTG (site TTGGCTGCTCA),0.00853
10,TTGGCTGCATGGACCGGTTTTCCCGGTAATCCGTATTTGTG (site TTTGCTGCTCA),0.0121
11,TTGGTAACATGGACCGGTTTTCCCGGTAATCCGTATTTGAG (site TTGGTAACTCT),0.734
12,TTGGTACCATGGACCGGTTTTCCCGGTAATCCGTATTTGCA (site TTGGTACCTTG),0.00424
13,TTGGTTCCATGGACCGGTTTTCCCGGTAATCCGTATTTGTG (site TTGGTTCCTCA),0.0354
14,TTGTAAGCATGGACCGGTTTTCCCGGTAATCCGTATTTGCA (site TTGTAAGCTTG),1.17
15,TTGTCGACATGGACCGGTTTTCCCGGTAATCCGTATTTGTC (site TTGTCGACTGA),0.433
16,TTGTGCTCATGGACCGGTTTTCCCGGTAATCCGTATTTGGG (site TTGTGCTCTCC),0.0159
17,TTTAGCCCATGGACCGGTTTTCCCGGTAATCCGTATTTGCT (site TTTAGCCCTAG),0
18,TTTATAGCATGGACCGGTTTTCCCGGTAATCCGTATTTGCG (site TTTATAGCTCG),0.232
19,TTTCACACATGGACCGGTTTTCCCGGTAATCCGTATTTGGA (site TTTCACACTTC),0.0104
20,TTTCACGCATGGACCGGTTTTCCCGGTAATCCGTATTTGGT (site TTTCACGCTAC),0.0228
21,TTTCCTCCATGGACCGGTTTTCCCGGTAATCCGTATTTGCG (site TTTCCTCCTCG),0.0281
22,TTTCGAGCATGGACCGGTTTTCCCGGTAATCCGTATTTGCA (site ATTCGAGCTTG),0.411
23,TTTCGAGCATGGACCGGTTTTCCCGGTAATCCGTATTTGCA (site CTTCGAGCTTG),0.13

row,Sequence,recombinant UMI read abundance (log10)
1,TTTCGAGCATGGACCGGTTTTCCCGGTAATCCGTATTTGCA (site GTTCGAGCTTG),0.969
2,TTTCGAGCATGGACCGGTTTTCCCGGTAATCCGTATTTGCA (site TTTCGAGCTTG),1.31
3,TTTCGCACATGGACCGGTTTTCCCGGTAATCCGTATTTGCG (site TTTCGCACTCG),0.00398
4,TTTCGCACATGGACCGGTTTTCCCGGTAATCCGTATTTGTC (site TTTCGCACTGA),0.308
5,TTTCGCCCATGGACCGGTTTTCCCGGTAATCCGTATTTGTG (site TTTCGCCCTCA),0.0225
6,TTTGAATCATGGACCGGTTTTCCCGGTAATCCGTATTTGAC (site TTTGAATCTGT),0
7,TTTGAGACATGGACCGGTTTTCCCGGTAATCCGTATTTGGT (site ATTGAGACTAC),0.0113
8,TTTGAGACATGGACCGGTTTTCCCGGTAATCCGTATTTGGT (site CTTGAGACTAC),0.0146
9,TTTGAGACATGGACCGGTTTTCCCGGTAATCCGTATTTGGT (site GTTGAGACTAC),0.0113
10,TTTGAGACATGGACCGGTTTTCCCGGTAATCCGTATTTGGT (site TTTGAGACTAC),0.511
11,TTTGCGGCATGGACCGGTTTTCCCGGTAATCCGTATTTGCC (site TTTGCGGCTAG),0.0224
12,TTTGCGGCATGGACCGGTTTTCCCGGTAATCCGTATTTGCC (site TTTGCGGCTCG),0.0088
13,TTTGCGGCATGGACCGGTTTTCCCGGTAATCCGTATTTGCC (site TTTGCGGCTGG),0
14,TTTGCGGCATGGACCGGTTTTCCCGGTAATCCGTATTTGCC (site TTTGCGGCTTG),0.0109
15,TTTGCGGCATGGACCGGTTTTCCCGGTAATCCGTATTTGCG (site TTTGCGGCTAG),0.00371
16,TTTGCGGCATGGACCGGTTTTCCCGGTAATCCGTATTTGCG (site TTTGCGGCTCG),0.0191
17,TTTGCGGCATGGACCGGTTTTCCCGGTAATCCGTATTTGCG (site TTTGCGGCTGG),0
18,TTTGCGGCATGGACCGGTTTTCCCGGTAATCCGTATTTGCG (site TTTGCGGCTTG),0.0091
19,TTTGCTGCATGGACCGGTTTTCCCGGTAATCCGTATTTGCT (site TTTGCAGCTAG),0
20,TTTGCTGCATGGACCGGTTTTCCCGGTAATCCGTATTTGCT (site TTTGCCGCTAG),0.0567
21,TTTGCTGCATGGACCGGTTTTCCCGGTAATCCGTATTTGCT (site TTTGCGGCTAG),0
22,TTTGCTGCATGGACCGGTTTTCCCGGTAATCCGTATTTGCT (site TTTGCTGCTAG),0.00917
23,TTTGTCACATGGACCGGTTTTCCCGGTAATCCGTATTTGGA (site TTTGTCACTTC),0.187

# Experiment: recombinant barcode read abundance after kanamycin selection (control-corrected) (log10(CPM+1)); higher = more efficient recombination; sequences stand for … in AGTGCAGAGAAAATCGGCCAGTTTTCTCTGCCTGCAGTCCGCATGCCGT…AGATTTATGCAGCGGACTGCCTTTCTCCCAAAGTGATAAACCGGACAGTATCATGGACCGGTTTTCCCGGTAATCCGTATTTGCAAGGTTGGTTTCACT; site = the 11-nt target
# Protocol: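 Pooled E. coli target-specificity screen for the IS621 bridge recombinase. Each library plasmid pairs an 11-nt target (CT core) with a bridge RNA whose target-binding loop (9-nt LTG + 4-nt RTG) is reprogrammed; the rest of the 177-nt WT IS621 bridge RNA scaffold is fixed. The plasmid is co-electroporated with a WT donor plasmid; recombinase is induced with 0.1 mM IPTG and recombinants are selected on kanamycin. Recombinant barcodes are sequenced, converted to CPM, averaged over two biological replicates and corrected by the unselected control CPM. Molecule = full bridge RNA written as DNA: LTG = specificity nt 1-9, RTG = reverse complement of specificity nt 8-11, in the WT scaffold.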
row,Sequence,recombinant barcode read abundance (log10)
1,AAAAGTCCTTGGGTTCTAACCTGTTGCCT (site AAAAGTCCTAG),1.11
2,AAAAGTCCTTGGGTTCTAACCTGTTGCCT (site AAGAGTCCTAC),0.0517
3,AAAATGCCTTGGGTTCTAACCTGTTGCCT (site AAAATGCCTAG),0.359
4,AAAATGCCTTGGGTTCTAACCTGTTGCCT (site CAAATGTCTAG),0.0967
5,AAACGACCTTGGGTTCTAACCTGTTGCCT (site AAACGACCTAG),1.59
6,AAACGACCTTGGGTTCTAACCTGTTGCCT (site CAACGACCTAG),0.291
7,AAACGACCTTGGGTTCTAACCTGTTGCCT (site GAACGACCTAG),0.0625
8,AAACGACCTTGGGTTCTAACCTGTTGCCT (site TAACGACCTAG),0.801
9,AAAGCTACTTGGGTTCTAACCTGTTGCTA (site AAAGCTACTTA),0.86
10,AAAGCTACTTGGGTTCTAACCTGTTGCTA (site TGGTAGTCTAC),0.0812
11,AAAGTGTCTTGGGTTCTAACCTGTTGCCT (site AAAGTGTCTAG),2.97
12,AAAGTGTCTTGGGTTCTAACCTGTTGCCT (site AACGTGTCTAG),0.373
13,AAAGTGTCTTGGGTTCTAACCTGTTGCCT (site AAGGTGTCTAG),0.489
14,AAAGTGTCTTGGGTTCTAACCTGTTGCCT (site AATGTGTCTAG),0.65
15,AAATCGTCTTGGGTTCTAACCTGTTGCCT (site AAATCGTCTAG),0.817
16,AAATCGTCTTGGGTTCTAACCTGTTGCCT (site AACACGTCTAG),0.176
17,AACAGCTCTTGGGTTCTAACCTGTTGCCT (site AACAGCTCTAG),1.75
18,AACAGCTCTTGGGTTCTAACCTGTTGCCT (site AACAGTTCTAG),0.15
19,AACAGTGCTTGGGTTCTAACCTGTTGCCT (site AACAATGCTAG),0.248
20,AACAGTGCTTGGGTTCTAACCTGTTGCCT (site AACACTGCTAG),0.219
21,AACAGTGCTTGGGTTCTAACCTGTTGCCT (site AACAGTGCTAG),0.73
22,AACAGTGCTTGGGTTCTAACCTGTTGCCT (site AACATTGCTAG),0.0547
23,AACATGCCTTGGGTTCTAACCTGTTGCTT (site AACAAGCCTCA),0.233

# — the supplement of paper PMC11208160
